ChEMBL document CHEMBL1201862, “PubChem BioAssay data set” (2004)
Activity calls are given as the source filed them.

Legend:
[1] = non-specific 3'UTR reporter inhibition in Clone20-Shn3RL – cell-based, Renilla luciferase, cherry-picked, counter-screen for Shn3 inhibitor project, dose response (AID 624133); format: functional
HEK293 = experiment: EBV LMP1 TES2 canonical NF-kB signalling blockers – cell-based, HEK293, luciferase, cherry-pick, dose response (AID 588343); format: functional; conditions: Homo sapiens
[2] = loss of viability in HepG2 cells – cell-based, CellTiter-Glo, cherry-picked, cytotoxicity control for Shn3 inhibitor project, dose response (AID 624134); format: functional
[3] = test system: Streptococcus sp. 'group A'; experiment: Streptococcus pyogenes SK(-)GAS viability under kanamycin – luminescence, BacTiterGlo, confirmation, counter-screen for streptokinase expression inhibitor project, dose response (AID 1900); format: functional, organism-based
[4] = Luminescence Cell-Based Dose Retest to Confirm Inhibitors of Cancer Stem Cells. [Related pubchem assays (depositor defined):AID2717, AID2721]; format: functional; conditions: Homo sapiens
[5] = luciferase reporter signal suppression in cells – H4 neuroglioma cells, luminescence, dose response (AID 1990); format: functional, cell-based
[6] = Luminescence Cell-Based Dose Response HTS to Identify Inhibitors of 5'UTR Stem-Loop Driven Prion Protein mRNA Translation in H4 Neuroglioblastoma Cells. [Related pubchem assays: 1827 (Project Summary), 1813 (Primary HTS)]; format: functional
[7] = alpha-synuclein stem-loop luciferase translation blockers – H4 neuroglioma cells, luminescence, confirmation (AID 1988); format: functional, cell-based
[8] = reduction of Shn3 3'UTR-driven luciferase in osteoblasts – cell-based, Clone20 osteoblasts, firefly luciferase, cherry-picked, dose response (AID 624132); format: functional;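 also: firefly luciferase luminescence from reporter carrying the Shn3 3'UTR in osteoblasts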
[9] = microbe, parasite or virus in culture; format: functional; conditions: Mycobacterium tuberculosis
[10] = Trypanosoma cruzi growth suppression in host cells – NIH3T3 host cells, beta-gal luminescence, confirmation (AID 2044); format: functional, cell-based;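 also: intracellular parasites grown in NIH/3T3 mouse fibroblasts as host cells; luminescent beta-galactosidase reporter signal from transgenic T. cruzi replicating inside host cells; inhibitors lower the luminescence signal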
Streptococcus = experiment: GAS UMAA2166 growth inhibition – luminescence, BacTiterGlo, counter-screen for streptokinase expression inhibitor project, dose response (AID 1915); format: functional, organism-based;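 also: potency for reduction of bacterial viability or growth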
INS1 = experiment: INS-1E survival protection against cytokine death – cell-based, luminescence, retest, dose response (AID 449756); format: functional; conditions: Rattus norvegicus;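 also: cell death triggered by IL-1 beta plus TNF-alpha plus IFN-gamma mixture; protective hits raise ATP signal compared with cytokine alone wells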
[11] = target: Latent membrane protein 1 (Human herpesvirus 4 (strain B95-8), UniProt P03230); experiment: LMP1 TES1 pathway selectivity over dsRED control – imaging, HEK293T, dual-color eGFP/dsRED, cherry-picks, selectivity assay for LMP1 NF-kB inhibitor project, dose response (AID 588398); format: functional, cell-based
[12] = NIH3T3 cell viability loss – ATP luminescence, mouse fibroblasts, counter-screen, dose response (AID 2010); format: functional, cell-based;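 also: cells exposed to compound for about 90 hours before reading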
[13] = target: Protein disulfide-isomerase (Homo sapiens, UniProt P07237); experiment: inhibition of PDI-driven insulin aggregation – biochemical, turbidity, absorbance, cherry-picked samples, dose response (AID 602350); format: functional
[14] = target: G protein-coupled receptor kinase 5 (Homo sapiens, UniProt P34947); experiment: Navigating the Kinome. Panel member name: GPRK5; format: functional
[15] = target: Casein kinase I isoform alpha (Homo sapiens, UniProt P48729); format: functional
[16] = target: Tyrosine-protein kinase ABL1 (Homo sapiens, UniProt P00519); format: functional
[17] = target: Serine/threonine-protein kinase D3 (Homo sapiens, UniProt O94806); format: functional;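 also: determined within a kinase panel screen, with PRKCN as the panel member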
Activin receptor type-1 = Activin receptor type-1 (Homo sapiens, UniProt Q04771); experiment: Navigating the Kinome. Panel member name: ACVR1; format: functional
[18] = target: Mitogen-activated protein kinase kinase kinase kinase 4 (Homo sapiens, UniProt O95819); format: functional
[19] = target: Cyclin-dependent kinase 8 (Homo sapiens, UniProt P49336); experiment: Navigating the Kinome. Panel member name: CDK8; format: functional
[20] = target: Serine/threonine-protein kinase pim-1 (Homo sapiens, UniProt P11309); format: functional
[21] = target: Mitogen-activated protein kinase 8 (Homo sapiens, UniProt P45983); format: functional;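 also: value comes from one member of a kinome-wide kinase profiling panel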
[22] = target: Serine/threonine-protein kinase PAK 4 (Homo sapiens, UniProt O96013); format: functional;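 also: value obtained within a kinome profiling panel in which PAK4 was one of the panel members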
[23] = target: Serine/threonine-protein kinase TAO1 (Homo sapiens, UniProt Q7L7X3); format: functional
[24] = target: Glycogen synthase kinase-3 alpha (Homo sapiens, UniProt P49840); format: functional;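 also: GSK3A result taken from a broad kinome-wide kinase panel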
[25] = target: Serine/threonine-protein kinase N2 (Homo sapiens, UniProt Q16513); format: functional
[26] = target: Tyrosine-protein kinase BTK (Homo sapiens, UniProt Q06187); format: functional
[27] = target: Tyrosine-protein kinase JAK3 (Homo sapiens, UniProt P52333); format: functional
[28] = target: ALK tyrosine kinase receptor (Homo sapiens, UniProt Q9UM73); format: functional;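 also: ALK tested as one member of a kinase panel screen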
[29] = target: Tyrosine-protein kinase Lck (Homo sapiens, UniProt P06239); format: functional;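 also: lck was assayed as one member of a kinase panel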
[30] = target: Tyrosine-protein kinase Fyn (Homo sapiens, UniProt P06241); format: functional
Focal adhesion kinase 1 = Focal adhesion kinase 1 (Homo sapiens, UniProt Q05397); format: functional;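 also: measured as one member of a kinome panel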
[31] = target: Fibroblast growth factor receptor 1 (Homo sapiens, UniProt P11362); format: functional
[32] = target: Death-associated protein kinase 3 (Homo sapiens, UniProt O43293); format: functional;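 also: measured as one member of a kinome-wide profiling panel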
[33] = target: Calcium/calmodulin-dependent protein kinase type II subunit alpha (Homo sapiens, UniProt Q9UQM7); experiment: Navigating the Kinome. Panel member name: CAMK2A; format: functional
[34] = blockers of bursicon-stimulated LGR2 cAMP reporter – cell-based, HEK293, CRE-luciferase reporter, cherry pick, set 2, dose response (AID 743343); format: functional;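 also: transfected cells were stimulated with diluted bursicon conditioned medium after compound addition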
[35] = target: Neurotensin receptor type 1 (Homo sapiens, UniProt P30989); format: functional;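 also: Image-based confirmatory dose-response assay measuring agonist activity at NTR1; NTR1-expressing U2OS osteosarcoma cells imaged for beta-arrestin GFP spot formation; agonist potency where compounds increase beta-arrestin recruitment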
[36] = (§1) Counterscreen for antagonists of the orexin 1 receptor (OX1R; HCRTR1): Fluorescence-based cell-based high throughput dose response assay to identify antagonists of the parental CHO cell line. [Related pubchem assays (depositor defined):AID434989, AID435008, AID463079, AID485270, AID492963, AID492964, AID492965, AID493232, AID504699, AID504701]; format: functional
[37] = toxicity toward HepG2 liver cells – cell-based, plate reader, cherry-pick, antagonist series, cytotoxicity control, dose response (AID 743416); format: functional
[38] = blockade of melanocortin 4 receptor signaling – cell-based, plate reader, cherry pick, counter-screen for LGR2 antagonist project, dose response (AID 743444); format: functional;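 also: transfected HEK 293 cells stimulated with alpha-MSH peptide; potency of inhibitors of the alpha-MSH evoked signal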
[39] = target: T1, Orexin/Hypocretin receptor type 1 (Homo sapiens, UniProt O43613); experiment: Homogeneous Time Resolved Fluorescence (HTRF)-based cell-based high throughput dose response assay for antagonists of the orexin 1 receptor (OX1R; HCRTR1). [Related pubchem assays (depositor defined):AID434989, AID435008, AID463079, AID485270, AID492963, AID492964, AID492965, AID493232, AID504717, AID504718]; format: functional
Orexin receptor type 2 [40] = target: T2, Orexin receptor type 2 (Homo sapiens, UniProt O43614); experiment: Counterscreen assay for antagonists of the orexin 1 receptor (OX1R; HCRTR1): Fluorescence-based cell-based dose response assay for antagonists of the orexin 2 receptor (OX2R; HCRTR2), run by assay provider.; format: functional
[41] = target: T1, Orexin/Hypocretin receptor type 1; experiment: Fluorescence-based cell-based high throughput dose response assay for antagonists of the orexin 1 receptor (OX1R; HCRTR1). [Related pubchem assays (depositor defined):AID434989, AID435008, AID463079, AID485270, AID492963, AID492964, AID492965, AID493232, AID504717, AID504718]; format: functional
[42] = viability loss in HEK293 cells – cell-based, plate reader, cherry-picked samples, cytotoxicity control, dose response (AID 743446); format: functional
Orexin receptor type 2 [43] = target: T2, Orexin receptor type 2; experiment: Counterscreen assay for antagonists of the orexin 1 receptor (OX1R; HCRTR1): Homogeneous Time Resolved Fluorescence (HTRF)-based cell-based dose response assay for antagonists of the orexin 2 receptor (OX2R; HCRTR2), run by assay provider.; format: functional
CHO-K1 = experiment: as §1, with “Homogeneous time resolved fluorescence (HTRF)-based” for “Fluorescence-based”, “cell-based” for “cell-based high throughput”, “CHO-K1” for “CHO”; format: functional; conditions: Cricetulus griseus;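 also: potency for inhibition of ATP-stimulated IP1 production as antagonists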
[44] = A549 cell cytotoxicity, dose response, cytotoxicity control, plate reader, cherry-pick, antagonist series (AID 743412); format: functional, cell-based
[45] = target: T3, Microphthalmia-associated transcription factor (Homo sapiens, UniProt O75030); experiment: reducers of TRPM1 reporter luminescence, concentration series – cell-based, SK-MEL-5, cherry-picked, set 3, MITF inhibitor project, dose response (AID 493073); format: functional;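 also: SK-MEL-5 melanoma cells with luciferase driven by the MITF target TRPM1 promoter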
T3 sequence (O75030 whole entry): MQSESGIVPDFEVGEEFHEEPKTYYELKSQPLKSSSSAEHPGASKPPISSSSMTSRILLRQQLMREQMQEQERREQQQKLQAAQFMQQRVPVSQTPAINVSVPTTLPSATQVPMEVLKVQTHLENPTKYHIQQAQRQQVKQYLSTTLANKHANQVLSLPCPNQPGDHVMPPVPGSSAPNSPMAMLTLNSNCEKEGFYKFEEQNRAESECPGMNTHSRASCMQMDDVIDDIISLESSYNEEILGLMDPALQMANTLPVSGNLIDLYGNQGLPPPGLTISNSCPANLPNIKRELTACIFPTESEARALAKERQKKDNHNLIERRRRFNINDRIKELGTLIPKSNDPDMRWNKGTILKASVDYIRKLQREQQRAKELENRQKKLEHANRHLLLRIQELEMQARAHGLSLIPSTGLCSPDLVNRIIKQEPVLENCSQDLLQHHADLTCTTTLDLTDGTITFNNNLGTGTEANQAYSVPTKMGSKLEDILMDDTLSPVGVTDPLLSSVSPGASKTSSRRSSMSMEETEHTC

[46] = target: Sphingosine 1-phosphate receptor 5 (Homo sapiens, UniProt Q9H228); experiment: activation of human S1P5 receptor – cell-based, fluorescence, set 2, counter-screen for S1P4 agonist project, late-stage follow-up (AID 504867); format: functional
[47] = target: Sphingosine 1-phosphate receptor 1 (Homo sapiens, UniProt P21453); experiment: Late-stage fluorescence-based dose-response cell-based counterscreen assay to identify agonists of the Sphingosine 1-Phosphate Receptor 4 (S1P4): Sphingosine 1-Phosphate Receptor 1 (S1P1) agonist assay Set 2.; format: functional
[48] = target: Sphingosine 1-phosphate receptor 3 (Homo sapiens, UniProt Q99500); experiment: Late-stage fluorescence-based dose-response cell-based counterscreen assay to identify agonists of the Sphingosine 1-Phosphate Receptor 4 (S1P4): Sphingosine 1-Phosphate Receptor 3 (S1P3) agonist assay Set 2.; format: functional
[49] = target: Sphingosine 1-phosphate receptor 2 (Homo sapiens, UniProt O95136); experiment: activation of human S1P2 receptor – cell-based, fluorescence, set 2, counter-screen for S1P4 agonist project, late-stage follow-up (AID 504873); format: functional
Sequence of Sphingosine 1-phosphate receptor 2 (O95136 whole entry): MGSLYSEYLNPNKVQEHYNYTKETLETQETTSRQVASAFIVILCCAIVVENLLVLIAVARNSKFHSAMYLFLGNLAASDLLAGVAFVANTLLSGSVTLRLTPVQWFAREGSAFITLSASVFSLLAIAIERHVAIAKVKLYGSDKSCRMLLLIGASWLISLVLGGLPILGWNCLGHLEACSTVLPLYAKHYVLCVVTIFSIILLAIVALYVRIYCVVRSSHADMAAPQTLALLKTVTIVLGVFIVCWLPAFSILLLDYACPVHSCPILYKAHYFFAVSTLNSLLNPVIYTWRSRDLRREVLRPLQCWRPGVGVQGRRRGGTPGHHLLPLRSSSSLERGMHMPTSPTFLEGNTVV

T1 sequence (O43613 whole entry): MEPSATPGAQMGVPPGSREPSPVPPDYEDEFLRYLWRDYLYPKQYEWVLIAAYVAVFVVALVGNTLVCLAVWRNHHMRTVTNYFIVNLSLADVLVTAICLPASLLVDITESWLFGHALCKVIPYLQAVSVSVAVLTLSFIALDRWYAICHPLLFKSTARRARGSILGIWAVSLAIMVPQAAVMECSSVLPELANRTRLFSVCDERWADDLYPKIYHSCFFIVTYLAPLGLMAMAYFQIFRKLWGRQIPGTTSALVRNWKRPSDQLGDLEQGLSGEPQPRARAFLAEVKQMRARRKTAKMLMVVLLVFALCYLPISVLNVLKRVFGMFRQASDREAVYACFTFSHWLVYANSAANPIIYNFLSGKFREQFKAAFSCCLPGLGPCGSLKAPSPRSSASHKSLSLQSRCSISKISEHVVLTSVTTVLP
T2 sequence (O43614 whole entry): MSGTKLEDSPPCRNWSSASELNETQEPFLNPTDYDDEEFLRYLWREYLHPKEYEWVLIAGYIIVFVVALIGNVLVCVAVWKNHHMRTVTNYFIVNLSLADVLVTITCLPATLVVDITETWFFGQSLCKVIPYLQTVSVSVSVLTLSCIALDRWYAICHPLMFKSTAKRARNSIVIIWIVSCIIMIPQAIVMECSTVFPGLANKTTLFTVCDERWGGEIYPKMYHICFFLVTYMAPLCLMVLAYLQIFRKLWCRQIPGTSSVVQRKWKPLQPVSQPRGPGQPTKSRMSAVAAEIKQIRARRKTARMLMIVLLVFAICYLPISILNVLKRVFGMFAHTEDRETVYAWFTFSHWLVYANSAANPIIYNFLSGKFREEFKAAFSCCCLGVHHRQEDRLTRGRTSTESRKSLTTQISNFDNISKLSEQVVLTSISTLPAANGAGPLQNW
Sequence of Serine/threonine-protein kinase PAK 4 (O96013 whole entry): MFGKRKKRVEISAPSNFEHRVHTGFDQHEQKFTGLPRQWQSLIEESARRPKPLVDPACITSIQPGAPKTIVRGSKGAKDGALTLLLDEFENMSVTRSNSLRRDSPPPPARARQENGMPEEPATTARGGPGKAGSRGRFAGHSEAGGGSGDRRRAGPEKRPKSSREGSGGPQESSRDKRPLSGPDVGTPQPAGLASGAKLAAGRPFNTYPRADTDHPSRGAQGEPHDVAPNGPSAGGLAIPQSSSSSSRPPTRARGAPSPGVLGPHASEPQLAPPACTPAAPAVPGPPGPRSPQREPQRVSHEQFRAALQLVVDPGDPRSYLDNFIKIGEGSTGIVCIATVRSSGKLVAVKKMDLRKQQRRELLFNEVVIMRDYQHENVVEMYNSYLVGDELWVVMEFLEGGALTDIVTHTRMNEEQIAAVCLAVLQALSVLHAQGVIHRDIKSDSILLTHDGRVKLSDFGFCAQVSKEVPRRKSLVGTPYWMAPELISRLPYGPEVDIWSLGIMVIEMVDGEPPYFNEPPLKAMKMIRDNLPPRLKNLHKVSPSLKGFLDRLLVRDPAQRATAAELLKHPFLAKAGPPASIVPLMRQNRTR
Sequence of Neurotensin receptor type 1 (P30989 whole entry): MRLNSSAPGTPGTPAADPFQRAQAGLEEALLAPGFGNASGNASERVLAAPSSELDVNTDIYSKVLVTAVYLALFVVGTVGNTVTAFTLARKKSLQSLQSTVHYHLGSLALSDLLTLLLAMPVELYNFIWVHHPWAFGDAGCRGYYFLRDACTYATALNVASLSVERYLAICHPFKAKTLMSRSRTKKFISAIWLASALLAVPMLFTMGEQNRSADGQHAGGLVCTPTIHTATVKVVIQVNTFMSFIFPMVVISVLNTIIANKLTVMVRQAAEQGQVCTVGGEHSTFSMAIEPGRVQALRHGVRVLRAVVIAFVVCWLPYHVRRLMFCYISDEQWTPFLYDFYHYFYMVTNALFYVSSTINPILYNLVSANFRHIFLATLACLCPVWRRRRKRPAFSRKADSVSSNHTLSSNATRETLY
Sequence of Activin receptor type-1 (Q04771 whole entry): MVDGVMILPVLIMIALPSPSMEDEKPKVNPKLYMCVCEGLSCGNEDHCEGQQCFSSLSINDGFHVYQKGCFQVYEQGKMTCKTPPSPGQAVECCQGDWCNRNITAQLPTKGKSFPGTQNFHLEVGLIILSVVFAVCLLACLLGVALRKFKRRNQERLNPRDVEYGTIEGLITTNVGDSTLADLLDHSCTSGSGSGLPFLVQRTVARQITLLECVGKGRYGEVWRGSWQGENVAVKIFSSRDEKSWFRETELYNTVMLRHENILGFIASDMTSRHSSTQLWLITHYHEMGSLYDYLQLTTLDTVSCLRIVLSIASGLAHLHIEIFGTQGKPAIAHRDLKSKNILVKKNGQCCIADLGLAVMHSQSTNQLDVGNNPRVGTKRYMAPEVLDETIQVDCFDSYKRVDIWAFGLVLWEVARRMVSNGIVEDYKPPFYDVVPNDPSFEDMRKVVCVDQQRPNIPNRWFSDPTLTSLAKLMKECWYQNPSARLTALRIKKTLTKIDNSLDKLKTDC
Sequence of Serine/threonine-protein kinase N2 (Q16513 whole entry): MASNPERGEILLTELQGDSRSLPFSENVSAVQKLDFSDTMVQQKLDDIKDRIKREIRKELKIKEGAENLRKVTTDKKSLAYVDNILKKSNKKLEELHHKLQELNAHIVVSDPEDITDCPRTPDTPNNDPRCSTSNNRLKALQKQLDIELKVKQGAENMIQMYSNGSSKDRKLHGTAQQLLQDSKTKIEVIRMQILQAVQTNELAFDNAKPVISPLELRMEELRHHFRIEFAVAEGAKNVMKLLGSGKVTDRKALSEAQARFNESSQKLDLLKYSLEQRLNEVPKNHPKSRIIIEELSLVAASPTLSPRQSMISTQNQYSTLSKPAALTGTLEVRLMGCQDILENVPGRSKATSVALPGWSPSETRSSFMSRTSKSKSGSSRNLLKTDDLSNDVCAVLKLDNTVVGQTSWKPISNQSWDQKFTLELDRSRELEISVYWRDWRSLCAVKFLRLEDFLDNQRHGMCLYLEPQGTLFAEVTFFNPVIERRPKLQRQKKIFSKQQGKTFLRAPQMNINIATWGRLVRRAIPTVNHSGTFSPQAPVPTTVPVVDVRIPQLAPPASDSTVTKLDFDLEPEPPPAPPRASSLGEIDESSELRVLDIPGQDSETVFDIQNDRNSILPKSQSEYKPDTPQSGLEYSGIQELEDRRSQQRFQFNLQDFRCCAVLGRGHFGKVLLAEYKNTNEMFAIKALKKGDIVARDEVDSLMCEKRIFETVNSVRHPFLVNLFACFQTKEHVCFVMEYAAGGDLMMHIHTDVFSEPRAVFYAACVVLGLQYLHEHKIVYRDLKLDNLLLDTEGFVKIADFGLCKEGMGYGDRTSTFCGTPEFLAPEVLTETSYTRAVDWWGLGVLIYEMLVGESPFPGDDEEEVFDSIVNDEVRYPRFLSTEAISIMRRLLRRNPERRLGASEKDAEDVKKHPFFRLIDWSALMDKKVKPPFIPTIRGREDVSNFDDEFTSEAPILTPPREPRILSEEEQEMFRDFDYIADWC
Sequence of Fibroblast growth factor receptor 1 (P11362 whole entry): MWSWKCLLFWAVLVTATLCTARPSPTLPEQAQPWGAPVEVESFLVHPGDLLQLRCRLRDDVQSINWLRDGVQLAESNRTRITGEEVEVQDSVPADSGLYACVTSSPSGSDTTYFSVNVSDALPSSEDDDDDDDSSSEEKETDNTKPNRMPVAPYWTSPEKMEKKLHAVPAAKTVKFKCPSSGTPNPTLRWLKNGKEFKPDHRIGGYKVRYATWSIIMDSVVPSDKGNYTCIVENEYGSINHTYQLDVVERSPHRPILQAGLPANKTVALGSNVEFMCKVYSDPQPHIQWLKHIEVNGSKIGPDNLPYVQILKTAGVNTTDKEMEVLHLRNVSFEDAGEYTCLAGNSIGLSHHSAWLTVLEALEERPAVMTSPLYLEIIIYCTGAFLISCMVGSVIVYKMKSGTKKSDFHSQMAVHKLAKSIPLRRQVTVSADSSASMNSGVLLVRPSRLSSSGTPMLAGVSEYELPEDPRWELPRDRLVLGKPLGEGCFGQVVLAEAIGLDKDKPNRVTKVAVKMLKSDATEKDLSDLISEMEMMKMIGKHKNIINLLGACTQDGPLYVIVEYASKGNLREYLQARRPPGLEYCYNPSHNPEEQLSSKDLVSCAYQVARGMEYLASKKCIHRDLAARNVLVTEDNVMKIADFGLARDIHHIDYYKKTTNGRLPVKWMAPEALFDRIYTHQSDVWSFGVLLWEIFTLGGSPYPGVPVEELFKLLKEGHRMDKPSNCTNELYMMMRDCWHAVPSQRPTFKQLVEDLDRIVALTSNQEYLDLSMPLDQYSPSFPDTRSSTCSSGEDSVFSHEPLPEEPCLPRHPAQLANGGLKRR
Sequence of Serine/threonine-protein kinase pim-1 (P11309 whole entry): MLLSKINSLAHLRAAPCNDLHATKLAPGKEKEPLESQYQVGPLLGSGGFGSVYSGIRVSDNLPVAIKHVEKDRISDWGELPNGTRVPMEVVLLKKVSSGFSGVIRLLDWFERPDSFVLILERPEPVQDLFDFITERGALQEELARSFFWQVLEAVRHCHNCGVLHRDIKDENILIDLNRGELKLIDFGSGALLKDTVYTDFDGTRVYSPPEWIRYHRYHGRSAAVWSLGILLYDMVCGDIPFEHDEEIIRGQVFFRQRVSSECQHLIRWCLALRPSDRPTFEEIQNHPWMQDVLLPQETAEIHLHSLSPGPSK

CCOC(=O)c1cnc(-n2nc(C)cc2C)nc1NNc1cc(C)nc(-c2ccccc2)n1
AC50 [1]: 2.29 µM (active) | AC50 (HEK293): 3.4 µM (active) | AC50 [2]: 60 µM (active) | EC50 [3]: 0.344 µM (active) | AC50 [4]: 1.74 µM (active) | EC50 [5]: 0.584 µM (active) | EC50 [6]: 2.8 µM (active) | EC50 [7]: 6.73 µM (active) | AC50 [8]: 3.31 µM (active) | CC50 [9]: 7.39 µM (active) | EC50 [10]: 0.355 µM (active) | EC50 (Streptococcus): 1.02 µM (active) | AC50 (INS1): 2.14 µM (active) | AC50 [11]: 81.7 µM (active) | EC50 [12]: 56.7 µM (active)

O=C(CCC1CCCCC1)NCCN1C2=NC[C@H](Cc3ccc(O)cc3)N2C[C@H]1Cc1ccc(O)cc1
AC50 [13]: 19.5 µM (active)

Cc1cc(=O)[nH]c2[nH]nc(-c3cccc(C(F)(F)F)c3)c12
Ki [14]: > 3.98 µM (inactive) | Ki [15]: > 3.98 µM (inactive) | Ki [16]: > 3.98 µM (inactive) | Ki [17]: > 3.98 µM (inactive) | Ki (Activin receptor type-1): > 3.98 µM (inactive) | Ki [18]: > 5.01 µM (inactive) | Ki [19]: > 3.98 µM (inactive) | Ki [20]: > 6.31 µM (inactive) | Ki [21]: > 5.01 µM (inactive) | Ki [22]: > 5.01 µM (inactive) | Ki [23]: > 6.31 µM (inactive) | Ki [24]: > 3.98 µM (inactive) | Ki [25]: > 5.01 µM (inactive) | Ki [26]: > 6.31 µM (inactive) | Ki [27]: > 5.01 µM (inactive) | Ki [28]: > 6.31 µM (inactive) | Ki [29]: > 6.31 µM (inactive) | Ki [30]: > 6.31 µM (inactive) | Ki (Focal adhesion kinase 1): > 6.31 µM (inactive) | Ki [31]: > 3.98 µM (inactive) | Ki [32]: > 5.01 µM (inactive) | Ki [33]: > 7.94 µM (inactive)

CN(C)S(=O)(=O)c1ccc(-c2csc(N/N=C/c3ccco3)n2)cc1
AC50 [34]: 7.23 µM (active) | EC50 [35]: 8.51 µM (active) | IC50 [36]: > 49.8 µM (inactive) | AC50 [37]: 5.32 µM (active) | AC50 [38]: 7.48 µM (active) | IC50 [39]: 7.29 µM (active) | IC50 (Orexin receptor type 2 [40]): > 88.8 µM (inactive) | IC50 [41]: > 49.8 µM (inactive) | AC50 [42]: 11 µM (active) | IC50 (Orexin receptor type 2 [43]): > 50 µM (inactive) | IC50 (CHO-K1): > 66.2 µM (inactive) | AC50 [44]: 40.7 µM (active) | AC50 [45]: 3.9 µM (active)

C/N=C1/S/C(=C/c2cc(C)n(-c3ccc(Cl)cc3F)c2C)C(=O)N1C
EC50 [46]: 0.0336 µM (active) | EC50 [47]: 3.01 µM (active) | EC50 [48]: > 25 µM (inactive) | EC50 [49]: > 25 µM (inactive)
